In BindingDB's records for patent WO2022098807 (Merck Sharp &Amp, 2022) one finds IC50 data, which are given here for 20 molecules.

In the assay the target is Mitogen-activated protein kinase kinase kinase kinase 1 (Homo sapiens, UniProt Q92918). Description: HPK1-SLP76 TR-FRET ASSAY. Background: In TR-FRET formats the signal depends on donor and acceptor labels being close together.
Mitogen-activated protein kinase kinase kinase kinase 1, sequence (Q92918 whole entry): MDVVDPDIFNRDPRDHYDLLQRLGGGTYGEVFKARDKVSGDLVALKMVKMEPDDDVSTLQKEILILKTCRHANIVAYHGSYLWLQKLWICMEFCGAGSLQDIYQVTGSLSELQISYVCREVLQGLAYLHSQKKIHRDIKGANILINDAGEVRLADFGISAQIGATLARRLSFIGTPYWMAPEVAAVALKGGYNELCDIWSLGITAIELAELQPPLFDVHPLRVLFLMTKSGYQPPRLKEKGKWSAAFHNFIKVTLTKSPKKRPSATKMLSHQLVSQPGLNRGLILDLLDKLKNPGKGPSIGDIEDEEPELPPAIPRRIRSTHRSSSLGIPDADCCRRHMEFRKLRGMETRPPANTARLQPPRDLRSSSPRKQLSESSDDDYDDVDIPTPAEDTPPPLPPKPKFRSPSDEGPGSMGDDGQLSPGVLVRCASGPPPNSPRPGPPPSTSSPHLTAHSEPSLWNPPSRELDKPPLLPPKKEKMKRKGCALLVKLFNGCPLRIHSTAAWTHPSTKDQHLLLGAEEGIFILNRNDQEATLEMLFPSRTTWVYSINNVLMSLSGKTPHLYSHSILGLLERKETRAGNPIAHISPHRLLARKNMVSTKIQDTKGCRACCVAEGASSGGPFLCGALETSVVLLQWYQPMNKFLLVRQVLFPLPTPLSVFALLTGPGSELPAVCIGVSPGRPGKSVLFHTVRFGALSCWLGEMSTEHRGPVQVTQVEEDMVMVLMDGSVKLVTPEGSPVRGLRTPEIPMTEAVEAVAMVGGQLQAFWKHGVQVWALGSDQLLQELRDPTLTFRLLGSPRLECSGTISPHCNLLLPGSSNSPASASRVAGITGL
By IC50 is commonly meant the concentration that gives 50% inhibition. The low end stands for higher potency, the high end for lower potency. `Cc1c(-c2ccc3cnc(Nc4cnn(C5CC6(C5)CC(C5(C)COC5)C6)c4)nc3c2)cnc2c1NCCO2` (stereo not given) [WO2022098807, Example 1-2] showed a half-inhibitory concentration (IC50) of 0.22 nM. `Cc1c(-c2ccc3cnc(Nc4cc5n(n4)CCN(C(C)(C)O)C(=O)C5)nc3c2)cnc2c1NCCO2` [WO2022098807, Example 1-8] returned an IC50 of 0.67 nM. With `Cc1c(-c2cc3nc(Nc4cnn(C5(C)CC5)c4)ncc3c(N)c2F)cnc2c1NCCO2` [WO2022098807, Example 2-8], the IC50 is 0.09 nM.

The molecule `Cc1c(-c2cc3nc(Nc4cnn(C5CCNCC5)c4)ncc3c(N)c2F)cnc2c1NCCO2` [WO2022098807, Example 2-11] returned an IC50 of 0.07 nM.

In turn, `Cc1c(-c2cc3nc(Nc4cnn([C@@H]5CCN(C)C5=O)c4)ncc3c(N)c2F)cnc2c1NCCO2` [WO2022098807, Example 2-19] displayed an IC50 of 0.15 nM. In the case of `Cc1c(-c2cc3nc(Nc4cc5n(n4)CCN(C(C)C)C(=O)C5)ncc3c(N)c2F)cnc2c1NCCO2` [WO2022098807, Example 2-20], the IC50 is 0.06 nM. `Cc1c(-c2cc3nc(Nc4cnn([C@H]5CCN(C)C5=O)c4)ncc3c(N)c2F)cnc2c1NCCO2` [WO2022098807, Example 2-21] returned an IC50 of 0.35 nM.

With `CCn1cc(Nc2ncc3c(N)c(F)c(-c4cnc5c(c4C)NCCO5)cc3n2)cn1` [WO2022098807, Example 2-22], the IC50 came out at 0.08 nM. `CNC(=O)C12CC(n3cc(Nc4ncc5c(N)c(F)c(-c6cnc7c(c6C)NCCO7)cc5n4)cn3)(C1)C2` [WO2022098807, Example 2-28] showed an IC50 of 0.09 nM. On to `Cc1c(-c2cc3nc(Nc4cnn(C)c4C)ncc3c(N)c2F)cnc2c1NCCO2` [WO2022098807, Example 2-30], for which the IC50 is 0.05 nM. In turn, `Cc1c(-c2cc3nc(Nc4cnn(CC(F)F)c4)ncc3c(N)c2F)cnc2c1NCCO2` [WO2022098807, Example 2-32] showed an IC50 of 0.05 nM.

For the molecule `Cc1nn(C)cc1Nc1ncc2c(N)c(F)c(-c3cnc4c(c3C)NCCO4)cc2n1` [WO2022098807, Example 2-34], 0.06 nM corresponded to half-maximal inhibition (IC50). Take `Cc1c(-c2cc3nc(Nc4cnn5c4CCC5)ncc3c(N)c2F)cnc2c1NCCO2` [WO2022098807, Example 2-35]: half-maximal inhibition (IC50) required 0.05 nM. As for `Cc1cnsc1Nc1ncc2c(N)c(F)c(-c3cnc4c(c3C)NCCO4)cc2n1` [WO2022098807, Example 2-37], the figure is 0.07 nM; as for `Cc1c(-c2cc3nc(Nc4cnn(C5COC5)c4)ncc3c(N)c2F)cnc2c1NCCO2` [WO2022098807, Example 2-39], 0.05 nM.

In turn, `Cc1c(-c2c(F)c(N)c3cnc(Nc4cnn(C5CCN(C)CC5)c4)nc3c2Cl)cnc2c1NCCO2` [WO2022098807, Example 2-44] had an IC50 of 0.05 nM. The molecule `Cc1c(-c2c(F)c(N)c3cnc(Nc4cnn(C5CC5)c4C)nc3c2Cl)cnc2c1NCCO2` [WO2022098807, Example 2-45] registered an IC50 of 0.18 nM. Molecule `Cc1c(-c2cc3nc(Nc4cnn(C56CC(C(C)(C)O)(C5)C6)c4)ncc3c(N)c2F)cnc2c1NCCO2` [WO2022098807, Example 2-46] registered an IC50 of 0.05 nM. In the case of `Cc1c(-c2c(F)c(N)c3cnc(Nc4cnn([C@H]5CCN(C)C5)c4)nc3c2Cl)cnc2c1NCCO2` [WO2022098807, Example 2-47] it was 0.18 nM. In turn, `Cc1c(-c2c(F)c(N)c3cnc(Nc4cnn([C@@H]5CCN(C)C5)c4)nc3c2Cl)cnc2c1NCCO2` [WO2022098807, Example 2-48] showed a half-maximal inhibitory concentration (IC50) of 0.17 nM.
